The values below are quoted from earlier work in publication PMC2063170, “A phase I clinical and pharmacokinetic study of the new topoisomerase inhibitor GI147211 given as a 72-h continuous infusion” (British Journal of Cancer, 1998).

Details of the data set: method as in Burris et al. 1994. Conditions: ref Burris et al. 1994, cited from earlier work.

SMILES strings stand for the structures.

Consider `CC[C@@]1(O)C(=O)OCc2c1cc1n(c2=O)Cc2cc3c(CN(C)C)c(O)ccc3nc2-1` [topotecan], for which the MTD (continuous infusion for 3 days every 3 weeks) was 1.6 mg m-2 day-1. Also, where the note is “plasma, 1.6 mg m-2 day-1 continuous infusion for 3 days every 3 weeks”, the “Css of lactone at MTD” value was 5.5 ng/mL.
